Measured values from publication PMC2996484 (Journal of neurochemistry, 2010).

Legend:
[1] = system: PKC phosphorylation of the D1DAR; test: In situ phosphorylation assay, HEK293T cells expressing the D1DAR; format: cell-based, rat; conditions: cells treated 30 min with 1 μM phorbol ester, Fig. 1A
PKC-null D1DAR = PKC-null D1DAR (Rattus norvegicus, UniProt P18901, S259A/S397A/S398A/S417A/S421A); test: cAMP accumulation assay, HEK293T cells expressing PKC-null D1DAR; format: cell-based; conditions: 1 μM PMA 30 min or 3 μM Gö6983 1 hr
Chain of PKC-null D1DAR (P18901 whole entry S259A/S397A/S398A/S417A/S421A): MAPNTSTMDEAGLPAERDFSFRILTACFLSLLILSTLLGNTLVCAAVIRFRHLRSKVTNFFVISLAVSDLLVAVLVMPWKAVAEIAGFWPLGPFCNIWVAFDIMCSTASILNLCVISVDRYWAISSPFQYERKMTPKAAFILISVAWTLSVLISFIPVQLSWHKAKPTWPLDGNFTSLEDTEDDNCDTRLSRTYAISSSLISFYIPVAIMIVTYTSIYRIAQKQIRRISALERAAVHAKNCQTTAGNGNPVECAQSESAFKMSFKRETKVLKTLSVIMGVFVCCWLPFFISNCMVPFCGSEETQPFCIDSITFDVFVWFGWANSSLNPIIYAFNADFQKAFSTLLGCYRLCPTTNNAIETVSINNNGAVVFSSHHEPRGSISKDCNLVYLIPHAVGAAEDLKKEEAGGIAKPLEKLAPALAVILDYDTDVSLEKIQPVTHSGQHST

WT D1DAR = WT D1DAR (Rattus norvegicus, UniProt P18901); test: cAMP accumulation assay, HEK293T cells expressing WT D1DAR; format: cell-based; conditions: 1 μM PMA 30 min or 3 μM Gö6983 1 hr
Chain of WT D1DAR (P18901 whole entry): as the sequence (P18901 whole entry S259A/S397A/S398A/S417A/S421A) above, with A259S, A397S, A398S, A417S, A421S counted along it

CCCC(=O)O[C@@H]1[C@@H](C)[C@@]2(O)[C@@H](C=C(CO)C[C@]3(O)C(=O)C(C)=C[C@@H]23)[C@@H]2C(C)(C)[C@]12OC(=O)CCC [PDBu, phorbol 12,13 dibutyrate]
D1DAR phosphorylation above basal [1]: robust increase in phosphorylation

COc1ccc2c(c1)c(C1=C(c3c[nH]c4ccccc34)C(=O)NC1=O)cn2CCCN(C)C [Gö6983]
effect of pretreatment on maximal DA-stimulated cAMP accumulation (PKC-null D1DAR): no longer displays an enhancement of cAMP accumulation
effect of pretreatment on maximal DA-stimulated cAMP accumulation (WT D1DAR): potentiation of the maximal amount of D1DAR-stimulated cAMP accumulation

CCCCCCCCCC(=O)O[C@@H]1[C@@H](C)[C@@]2(O)[C@@H](C=C(CO)C[C@@]3(O)C(=O)C(C)=C[C@@H]23)[C@@H]2C(C)(C)[C@]12OC(=O)CCCCCCCCC [4αPDD, 4α-phorbol-12,13-didecanoate]
D1DAR phosphorylation above basal [1]: inactive

CCCCCCCCCCCCCC(=O)O[C@@H]1[C@@H](C)[C@@]2(O)[C@@H](C=C(CO)C[C@]3(O)C(=O)C(C)=C[C@@H]23)[C@@H]2C(C)(C)[C@]12OC(C)=O [PMA, phorbol 12-myristate 13-acetate]
D1DAR phosphorylation above basal [1]: robust increase in phosphorylation
effect of pretreatment on maximal DA-stimulated cAMP accumulation (PKC-null D1DAR): potentiation of maximal cAMP accumulation
effect of pretreatment on maximal DA-stimulated cAMP accumulation (WT D1DAR): potentiation of the maximal amount of D1DAR-stimulated cAMP accumulation
